Results as given in US8134013B2, “Amide compound and thrombopoietin receptor activator” (Nissan Chemical Industries, Ltd., priority 2004, dated 2012).

How the values were obtained:
UT7/EPO cells [1] = assay: Proliferation of mother cell line UT7/EPO expressing no thrombopoietin receptor (WST-8); assay type: cell-based, human; settings: FIG. 2
Protocol: (§1) UT7/EPO-mpl is a stable transformed cell line obtained by introducing into human leukemic cell line UT7/EPO a vector that induces expression of human thrombopoietin receptor (c-mpl) under control of cytomegalovirus immediate-early promoter by the method of Takatoku et al. (J. Biol. Chem., 272:7259-7263 (1997)). […] These two cell lines were subcultured in IMDM (GIBCO) containing 10% fetal bovine serum (Thermo Electron or BioWest) using a CO2 incubator (5% CO2, 37° C.).
The subcultured cells described above were washed twice with PBS and suspended in IMDM containing 10% fetal bovine serum at a cell density of 6×10^4 cells/ml. The cell suspension was transferred to a 96-well tissue culture plate (CORNING) in 100-μl aliquots. […] The formazan pigment generated was detected by measuring the absorbance at 450 nm with a 96-well microplate reader (Nihon Molecular Devices, Spectramax 190).

[2] = target: T1, human thrombopoietin receptor (c-mpl) (Homo sapiens, UniProt P40238); assay: Stimulation of proliferation of thrombopoietin-dependent cell line UT7/EPO-mpl (WST-8); assay type: cell-based; settings: for EC50: human leukemic cell line UT-7/EPO-mpl, 4 days incubation, relative to 10 ng/mL TPO, read-out: EC50 (concentration that yields a growth rate corresponding to 50% of the growth observed in the presence of 10 ng/mL TPO) (converted)
T1 construct: expressed in transfected cells
T1 sequence (P40238 26-635): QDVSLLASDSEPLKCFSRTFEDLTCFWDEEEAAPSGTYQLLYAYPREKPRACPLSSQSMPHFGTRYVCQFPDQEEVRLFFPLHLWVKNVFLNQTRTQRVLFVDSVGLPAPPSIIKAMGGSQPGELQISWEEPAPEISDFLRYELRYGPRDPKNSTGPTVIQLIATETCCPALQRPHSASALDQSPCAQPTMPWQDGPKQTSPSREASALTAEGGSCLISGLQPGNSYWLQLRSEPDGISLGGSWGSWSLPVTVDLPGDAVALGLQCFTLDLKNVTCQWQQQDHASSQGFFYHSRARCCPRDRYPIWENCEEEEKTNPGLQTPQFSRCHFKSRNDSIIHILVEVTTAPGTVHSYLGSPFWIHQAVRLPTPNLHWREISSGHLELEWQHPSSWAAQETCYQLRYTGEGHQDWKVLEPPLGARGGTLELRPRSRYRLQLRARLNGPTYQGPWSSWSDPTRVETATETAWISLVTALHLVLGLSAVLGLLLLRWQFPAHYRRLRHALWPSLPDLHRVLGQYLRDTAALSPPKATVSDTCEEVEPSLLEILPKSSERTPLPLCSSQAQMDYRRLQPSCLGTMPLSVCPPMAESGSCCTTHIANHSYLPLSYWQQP
Protocol: The response of thrombopoietin receptor to the compound of Synthetic Example 2 of the present invention was assayed using a human leukemic cell line, UT7/EPO-mpl.
as §1
The subcultured cells described above were washed twice with PBS and suspended in IMDM containing 10% fetal bovine serum at a cell density of 6×10^4 cells/ml. The cell suspension was transferred to a 96-well tissue culture plate (CORNING) in 100-μl aliquots. Then either thrombopoietin (Pepro Tech EC, or the compound of Synthetic Example 2 dissolved in dimethyl sulfoxide was diluted 83-fold with IMDM containing 10% fetal bovine serum and added to the aforementioned cell suspension in 20-μl aliquots. The cell suspension was incubated in a CO2 incubator (5% CO2, 37° C.) for 4 days. Cell proliferation was assayed using WST-8 reagent (Kishida Chemical Co., Ltd.) according to instructions by the manufacturer. A 10-μl aliquot of 5 mM WST-8 reagent solution was added to each well of the tissue culture plate, and the plate was incubated at 37° C. for 4 hours. The formazan pigment generated was detected by measuring the absorbance at 450 nm with a 96-well microplate reader (Nihon Molecular Devices, Spectramax 190).
The compounds of the following Synthetic Examples were tested according to the method of Assay Example 1 to determine the concentration of each compound that yields a growth rate corresponding to 50% of the growth of human leukemic cell line UT-7/EPO-mpl observed in the presence of 10 ng/mL TPO (EC50).

[3] = target: T1, human thrombopoietin receptor (c-mpl); settings: property of the cell line as described; cited from earlier work
UT7/EPO cells [4] = settings: property of the cell line as described; cited from earlier work

Row | EC50 [2] [nM] | Compound | also measured
1 | – | C/C(=N\NC(=O)c1ccc(C(=O)NCC2CCCO2)s1)c1csc(-c2ccc(Cl)c(Cl)c2)c1O (stereo not shown) [Synthetic Example 2, 5-{1-[5-(3,4-Dichlorophenyl)-4-hydroxythiophen-3-yl]ethylidenehydrazinocarbonyl}thiophene-2-carboxylic acid(tetrahydrofuran-2-ylmethyl)amide] | effect on proliferation of UT7/EPO, the mother cell line (UT7/EPO cells [1]): no effect; proliferation of thrombopoietin-responsive UT7/EPO-mpl cells ([2]; FIG. 1, UT7/EPO-mpl cells, 4 days, WST-8 absorbance at 450 nm): stimulated; acts on the thrombopoietin receptor selectively as an activator ([2]; conclusion from UT7/EPO-mpl versus UT7/EPO): selectively
2 | 1.56 | C/C(=N\NC(=O)c1ccc(C(=O)NNc2ccccn2)s1)c1csc(-c2ccc(Cl)c(Cl)c2)c1O [compound 58] | –
3 | 5.01 | COC1CN(C(=O)c2ccc(C(=O)N/N=C(\C)c3csc(-c4ccc(Br)cc4)c3O)s2)CC1OC (stereo not shown) [compound 84] | –
4 | 2.27 | C/C(=N\NC(=O)c1ccc(C(=O)NN(C)C)s1)c1csc(-c2ccc(C(C)(C)C)cc2)c1O [compound 24] | –
5 | 4.12 | C/C(=N\NC(=O)c1ccc(C(=O)NCCC(=O)O)s1)c1csc(-c2ccc(C)c(C)c2)c1O [compound 65] | –
6 | 0.566 | CC(=O)NC1CCN(C(=O)c2ccc(C(=O)N/N=C(\C)c3csc(-c4ccc(Cl)c(Cl)c4)c3O)s2)C1 (stereo not shown) [compound 5] | –
7 | 6.5 | C/C(=N\NC(=O)c1ccc(C(=O)NCCC(=O)O)s1)c1csc(-c2ccc(Cl)cc2)c1O [compound 45] | –
8 | 2.77 | C/C(=N\NC(=O)c1ccc(C(=O)NCCCN2CCOCC2)s1)c1nn(C)c(-c2ccc(C(F)(F)F)cc2)c1O [compound 49] | –
9 | 0.652 | C/C(=N\NC(=O)c1ccc(C(=O)N2CC(O)C(O)C2)s1)c1csc(-c2cccc(Cl)c2)c1O (stereo not shown) [compound 90] | –
10 | – | TPO: Thrombopoietin is a cytokine consisting of 332 amino acids that increases platelet production | proliferation of UT7/EPO-mpl cell line [3]: stimulated; response of mother cell line UT7/EPO (UT7/EPO cells [4]): no response
